Assay results published in patent US11345712B2, “Protein-targeting compounds and pharmaceutical compositions thereof, and their therapeutic applications” (BioTheryX, Inc., priority 2019, dated 2022).

Test system: MOLM-13 cells
Experiment: MOLM-13 cell viability assay (CellTiter-Glo)
Type: cell-based
Conditions: Homo sapiens, MOLM-13, 72 h, 3 days, concentration of 1 μM, read-out: Antiproliferative Activity (inhibition, MOLM-13 cell viability)
How it was run: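 Luminescent ATP read-out (CellTiter-Glo, 10 min with shaking) after 3-day compound or DMSO exposure at 37° C, 5% CO2. Cells plated at 2,500/well in RPMI 1640 plus 10% FBS.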

| SMILES | cytotoxicity at 1 µM |
| --- | --- |
| Cc1cc(C)c(C(=O)C(=O)NCc2ccc3c(c2)CN(C2CCC(=O)NC2=O)C3=O)c(C)c1 (stereo not drawn) [Compound I-85, N-((2-(2,6-dioxopiperidin-3-yl)-1-oxoisoindolin-5-yl)methyl)-2-oxo-2-(2,4,6-trimethylphenyl)acetamide] | 50 to 80% |
| O=C1CCC(N2Cc3cc(CNC(=O)C(=O)c4ccccc4F)ccc3C2=O)C(=O)N1 (stereo not drawn) [Compound I-86, N-((2-(2,6-dioxopiperidin-3-yl)-1-oxoisoindolin-5-yl)methyl)-2-oxo-2-(2-fluorophenyl)acetamide] | 50 to 80% |
| O=C1CCC(N2Cc3cc(CNC(=O)C(=O)c4ccc(C(F)(F)F)cc4)ccc3C2=O)C(=O)N1 (stereo not drawn) [Compound I-87, N-((2-(2,6-dioxopiperidin-3-yl)-1-oxoisoindolin-5-yl)methyl)-2-oxo-2-(4-trifluoromethylphenyl)acetamide] | 25 to 50% |
| O=C1CCC(N2Cc3c(CNC(=O)C(=O)c4cccc(Cl)c4)cccc3C2=O)C(=O)N1 (stereo not drawn) [Compound I-88, 2-(3-chlorophenyl)-N-((2-(2,6-dioxopiperidin-3-yl)-1-oxoisoindolin-4-yl)methyl)-2-oxoacetamide] | < 25% |
| COc1ccc(C(=O)C(=O)NCc2ccc3c(c2)CN(C2CCC(=O)NC2=O)C3=O)cc1 (stereo not drawn) [Compound I-89, N-((2-(2,6-dioxopiperidin-3-yl)-1-oxoisoindolin-5-yl)methyl)-2-(4-methoxyphenyl)-2-oxoacetamide] | > 80% |
| N#Cc1ccc(C(=O)C(=O)NCc2ccc3c(c2)CN(C2CCC(=O)NC2=O)C3=O)cc1 (stereo not drawn) [Compound I-90, 2-(4-cyanophenyl)-N-((2-(2,6-dioxopiperidin-3-yl)-1-oxoisoindolin-5-yl)methyl)-2-oxoacetamide] | < 25% |
| O=C1CCC(N2Cc3cc(CNC(=O)C(=O)c4cccc(Cl)c4)ccc3C2=O)C(=O)N1 (stereo not drawn) [Compound I-91, 2-(3-chlorophenyl)-N-((2-(2,6-dioxopiperidin-3-yl)-1-oxoisoindolin-5-yl)methyl)-2-oxoacetamide] | > 80% |
| O=C1CCC(N2Cc3c(CNC(=O)C(=O)c4cccc(F)c4)cccc3C2=O)C(=O)N1 (stereo not drawn) [Compound I-92, 2-(3-fluorophenyl)-N-((2-(2,6-dioxopiperidin-3-yl)-1-oxoisoindolin-4-yl)methyl)-2-oxoacetamide] | 50 to 80% |
| O=C1CCC(N2Cc3cc(CNC(=O)C(=O)c4ccc(F)c(F)c4)ccc3C2=O)C(=O)N1 (stereo not drawn) [Compound I-93, 2-(3,4-difluorophenyl)-N-((2-(2,6-dioxopiperidin-3-yl)-1-oxoisoindolin-5-yl)methyl)-2-oxoacetamide] | > 80% |
| COc1cccc(C(=O)C(=O)NCc2cccc3c2CN(C2CCC(=O)NC2=O)C3=O)c1 (stereo not drawn) [Compound I-94, 2-(3-methoxyphenyl)-N-((2-(2,6-dioxopiperidin-3-yl)-1-oxoisoindolin-4-yl)methyl)-2-oxoacetamide] | < 25% |
| COc1cccc(C(=O)C(=O)NCc2ccc3c(c2)CN(C2CCC(=O)NC2=O)C3=O)c1 (stereo not drawn) [Compound I-95, N-((2-(2,6-dioxopiperidin-3-yl)-1-oxoisoindolin-5-yl)methyl)-2-(3-methoxyphenyl)-2-oxoacetamide] | > 80% |
| O=C1CCC(N2Cc3c(CNC(=O)C(=O)c4ccc5ccccc5c4)cccc3C2=O)C(=O)N1 (stereo not drawn) [Compound I-96, N-((2-(2,6-dioxopiperidin-3-yl)-1-oxoisoindolin-4-yl)methyl)-2-(naphthalen-2-yl)-2-oxoacetamide] | < 25% |
| O=C1CCC(N2Cc3cc(CNC(=O)C(=O)c4ccncc4)ccc3C2=O)C(=O)N1 (stereo not drawn) [Compound I-103, N-((2-(2,6-dioxopiperidin-3-yl)-1-oxoisoindolin-5-yl)methyl)-2-oxo-2-(pyridin-4-yl)acetamide] | < 25% |
| Cc1cc(C(C)(C)C)cc(C)c1C(=O)C(=O)NCc1ccc2c(c1)CN(C1CCC(=O)NC1=O)C2=O (stereo not drawn) [Compound I-104, 2-(4-(tert-butyl)-2,6-dimethylphenyl)-N-((2-(2,6-dioxopiperidin-3-yl)-1-oxoisoindolin-5-yl)methyl)-2-oxoacetamide] | > 80% |
| Cc1cc(C(C)(C)C)cc(C)c1C(=O)C(=O)NCc1cccc2c1CN(C1CCC(=O)NC1=O)C2=O (stereo not drawn) [Compound I-105, 2-(4-(tert-butyl)-2,6-dimethylphenyl)-N-((2-(2,6-dioxopiperidin-3-yl)-1-oxoisoindolin-4-yl)methyl)-2-oxoacetamide] | < 25% |
| O=C1CCC(N2Cc3c(CNC(=O)C(=O)c4ccc(Br)cc4)cccc3C2=O)C(=O)N1 (stereo not drawn) [Compound I-106, 2-(4-bromophenyl)-N-((2-(2,6-dioxopiperidin-3-yl)-1-oxoisoindolin-4-yl)methyl)-2-oxoacetamide] | < 25% |
| Cc1ccc(N(C)C(=O)N(C)Cc2scc3c2CN(C2CCC(=O)NC2=O)C3=O)cc1Cl (stereo not drawn) [II-20, 1-(3-chloro-4-methylphenyl)-3-((5-(2,6-dioxopiperidin-3-yl)-4-oxo-5,6-dihydro-4H-thieno[3,4-c]pyrrol-1-yl)methyl)-1,3-dimethylurea] | < 25% |

| SMILES | cytotoxicity at 1 µM |
| --- | --- |
| Cc1ccc(CNC(=O)NCc2cc3c(s2)CN(C2CCC(=O)NC2=O)C3=O)cc1Cl (stereo not drawn) [II-21, 1-(3-chloro-4-methylbenzyl)-3-((5-(2,6-dioxopiperidin-3-yl)-4-oxo-5,6-dihydro-4H-thieno[2,3-c]pyrrol-2-yl)methyl)urea] | 50 to 80% |
| Cc1ccc(N(C)C(=O)NCc2scc3c2CN(C2CCC(=O)NC2=O)C3=O)cc1Cl (stereo not drawn) [II-22, 1-(3-chloro-4-methylphenyl)-3-((5-(2,6-dioxopiperidin-3-yl)-4-oxo-5,6-dihydro-4H-thieno[3,4-c]pyrrol-1-yl)methyl)-1-methylurea] | 50 to 80% |
| Cc1ccc(NCCCNCc2scc3c2CN(C2CCC(=O)NC2=O)C3=O)cc1Cl (stereo not drawn) [II-23, 3-(1-(((3-((3-chloro-4-methylphenyl)amino)propyl)amino)methyl)-4-oxo-4H-thieno[3,4-c]pyrrol-5(6H)-yl)piperidine-2,6-dione] | < 25% |
| Cc1ccc(CC(=O)NCc2scc3c2CN(C2CCC(=O)NC2=O)C3=O)cc1Cl (stereo not drawn) [II-24, 2-(3-chloro-4-methylphenyl)-N-((5-(2,6-dioxopiperidin-3-yl)-4-oxo-5,6-dihydro-4H-thieno[3,4-c]pyrrol-1-yl)methyl)acetamide] | < 25% |
| O=C(Cc1ccc(F)cc1)NCc1scc2c1CN(C1CCC(=O)NC1=O)C2=O (stereo not drawn) [II-25, N-((5-(2,6-dioxopiperidin-3-yl)-4-oxo-5,6-dihydro-4H-thieno[3,4-c]pyrrol-1-yl)methyl)-2-(4-fluorophenyl)acetamide] | < 25% |
| Cc1cc(NC(=O)NCc2cc3c(s2)C(=O)N(C2CCC(=O)NC2=O)C3)ccc1N1CCOCC1 (stereo not drawn) [II-26, 1-((5-(2,6-dioxopiperidin-3-yl)-6-oxo-5,6-dihydro-4H-thieno[2,3-c]pyrrol-2-yl)methyl)-3-(3-methyl-4-morpholinophenyl)urea] | < 25% |
| Cc1cc(NC(=O)NCc2cc3c(s2)C(=O)N(C2CCC(=O)NC2=O)C3)ccc1N1CCCC1 (stereo not drawn) [II-27, 1-((5-(2,6-dioxopiperidin-3-yl)-6-oxo-5,6-dihydro-4H-thieno[2,3-c]pyrrol-2-yl)methyl)-3-(3-methyl-4-(pyrrolidin-1-yl)phenyl)urea] | < 25% |
| Cc1ccc(C(F)(F)C(=O)NCc2scc3c2CN(C2CCC(=O)NC2=O)C3=O)cc1Cl (stereo not drawn) [II-28, 2-(3-chloro-4-methylphenyl)-N-((5-(2,6-dioxopiperidin-3-yl)-4-oxo-5,6-dihydro-4H-thieno[3,4-c]pyrrol-1-yl)methyl)-2,2-difluoroacetamide] | < 25% |
| Cc1ccc(C(F)(F)C(=O)NCc2scc3c2CN([C@H]2CCCC(=O)NC2=O)C3=O)cc1Cl [II-29, (S)-2-(3-chloro-4-methylphenyl)-N-((5-(2,7-dioxoazepan-3-yl)-4-oxo-5,6-dihydro-4H-thieno[3,4-c]pyrrol-1-yl)methyl)-2,2-difluoroacetamide] | < 25% |
| Cc1ccc(CC(=O)NCc2cc3c(s2)C(=O)N(C2CCC(=O)NC2=O)C3)cc1Cl (stereo not drawn) [II-30, 2-(3-chloro-4-methylphenyl)-N-((5-(2,6-dioxopiperidin-3-yl)-6-oxo-5,6-dihydro-4H-thieno[2,3-c]pyrrol-2-yl)methyl)acetamide] | < 25% |
| Cc1ccc(NC(=O)NCCc2scc3c2CN(C2CCC(=O)NC2=O)C3=O)cc1Cl (stereo not drawn) [II-31, 1-(3-chloro-4-methylphenyl)-3-(2-(5-(2,6-dioxopiperidin-3-yl)-4-oxo-5,6-dihydro-4H-thieno[3,4-c]pyrrol-1-yl)ethyl)urea] | > 80% |
| Cc1ccc(CNC(=O)NCCc2scc3c2CN(C2CCC(=O)NC2=O)C3=O)cc1Cl (stereo not drawn) [II-32, 1-(3-chloro-4-methylbenzyl)-3-(2-(5-(2,6-dioxopiperidin-3-yl)-4-oxo-5,6-dihydro-4H-thieno[3,4-c]pyrrol-1-yl)ethyl)urea] | > 80% |
| Cc1ccc(C=CC(=O)NCc2cc3c(s2)C(=O)N(C2CCC(=O)NC2=O)C3)cc1Cl (stereo not drawn) [II-33, 3-(3-chloro-4-methylphenyl)-N-((5-(2,6-dioxopiperidin-3-yl)-6-oxo-5,6-dihydro-4H-thieno[2,3-c]pyrrol-2-yl)methyl)propenamide] | < 25% |
| Cc1ccc(C=CC(=O)NCc2scc3c2CN(C2CCC(=O)NC2=O)C3=O)cc1Cl (stereo not drawn) [II-34, 3-(3-chloro-4-methylphenyl)-N-((5-(2,6-dioxopiperidin-3-yl)-4-oxo-5,6-dihydro-4H-thieno[3,4-c]pyrrol-1-yl)methyl)propenamide] | > 80% |
| O=C1CCC(N2Cc3cc(CNC(=O)NCc4c(Cl)cccc4Cl)sc3C2=O)C(=O)N1 (stereo not drawn) [II-36, 1-(2,6-dichlorobenzyl)-3-((5-(2,6-dioxopiperidin-3-yl)-6-oxo-5,6-dihydro-4H-thieno[2,3-c]pyrrol-2-yl)methyl)urea] | 50 to 80% |
| O=C1CCC(N2Cc3c(csc3CNC(=O)NCc3c(Cl)cccc3Cl)C2=O)C(=O)N1 (stereo not drawn) [II-37, 1-(2,6-dichlorobenzyl)-3-((5-(2,6-dioxopiperidin-3-yl)-4-oxo-5,6-dihydro-4H-thieno[3,4-c]pyrrol-1-yl)methyl)urea] | > 80% |
